± gives the expanded uncertainty stated by the source.
Details: 100 kPa, Liquid, Vibrating tube method

Structure (SMILES)	mass density (293.15 K) [kg/m3]	mass density (303.15 K) [kg/m3]	mass density (313.15 K) [kg/m3]	mass density (323.15 K) [kg/m3]	mass density (333.15 K) [kg/m3]
CCOCCOCCOC(C)=O [2-(2-ethoxyethoxy)ethyl acetate]	1009.46 ± 0.25	999.19 ± 0.24	988.92 ± 0.24	978.66 ± 0.24	968.38 ± 0.24
CCCCOCCOC(C)=O [2-butoxyethyl acetate]	940.7 ± 0.77	930.89 ± 0.76	921.05 ± 0.75	911.18 ± 0.74	901.29 ± 0.73

— the NIST ThermoML archive (doi:10.1016/j.fluid.2014.02.029)
